Results as given in PubChem BioAssay (NCI).
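A five-concentration, 48-hour dose response in 96-well plates underlies each endpoint, interpolated linearly between surrounding concentrations. TGI: concentration producing complete growth inhibition.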

Assays:
Assay in all cases: NCI tumour cell line growth inhibition, 48 h
786-0 renal = test system: 786-0 renal
A498 renal = test system: A498 renal
A549 NSCLC = test system: A549 NSCLC
ACHN renal = test system: ACHN renal
CAKI-1 renal = test system: CAKI-1 renal
CCRF-CEM leukemia = test system: CCRF-CEM leukemia
DLD-1 colon = test system: DLD-1 colon
DMS 114 small cell lung = test system: DMS 114 small cell lung
DMS 273 small cell lung = test system: DMS 273 small cell lung
EKVX NSCLC = test system: EKVX NSCLC
HCC-2998 colon = test system: HCC-2998 colon
HCT-116 colon = test system: HCT-116 colon
HCT-15 colon = test system: HCT-15 colon
HL-60(TB) leukemia = test system: HL-60(TB) leukemia
HOP-18 NSCLC = test system: HOP-18 NSCLC
HOP-62 NSCLC = test system: HOP-62 NSCLC
HOP-92 NSCLC = test system: HOP-92 NSCLC
HT29 colon = test system: HT29 colon
IGROV1 ovarian = test system: IGROV1 ovarian
K-562 leukemia = test system: K-562 leukemia
KM12 colon = test system: KM12 colon
KM20L2 colon = test system: KM20L2 colon
LOX IMVI melanoma = test system: LOX IMVI melanoma
LXFL 529 NSCLC = test system: LXFL 529 NSCLC
M14 melanoma = test system: M14 melanoma
M19-MEL melanoma = test system: M19-MEL melanoma
MALME-3M melanoma = test system: MALME-3M melanoma
MOLT-4 leukemia = test system: MOLT-4 leukemia
NCI-H226 lung = test system: NCI-H226 lung
NCI-H23 lung = test system: NCI-H23 lung
NCI-H460 lung = test system: NCI-H460 lung
NCI-H522 lung = test system: NCI-H522 lung
OVCAR-3 ovarian = test system: OVCAR-3 ovarian
OVCAR-4 ovarian = test system: OVCAR-4 ovarian
OVCAR-5 ovarian = test system: OVCAR-5 ovarian
OVCAR-8 ovarian = test system: OVCAR-8 ovarian
RPMI-8226 leukemia = test system: RPMI-8226 leukemia
RXF 393 renal = test system: RXF 393 renal
SF-268 CNS = test system: SF-268 CNS
SF-295 CNS = test system: SF-295 CNS
SF-539 CNS = test system: SF-539 CNS
SK-MEL-2 melanoma = test system: SK-MEL-2 melanoma
SK-MEL-28 melanoma = test system: SK-MEL-28 melanoma
SK-MEL-5 melanoma = test system: SK-MEL-5 melanoma
SK-OV-3 ovarian = test system: SK-OV-3 ovarian
SN12C renal = test system: SN12C renal
SNB-19 CNS = test system: SNB-19 CNS
SNB-75 CNS = test system: SNB-75 CNS
SNB-78 CNS = test system: SNB-78 CNS
SR leukemia = test system: SR leukemia
SW-620 colon = test system: SW-620 colon
TK-10 renal = test system: TK-10 renal
U251 CNS = test system: U251 CNS
UACC-257 melanoma = test system: UACC-257 melanoma
UACC-62 melanoma = test system: UACC-62 melanoma
UO-31 renal = test system: UO-31 renal
XF 498 CNS = test system: XF 498 CNS
COLO 205 colon = test system: COLO 205 colon
RXF-631 renal = test system: RXF-631 renal

## COc1cc2c[n+](C)c3c4cc(OC)c(OC)cc4c(OCCCCCCCCOc4cc5c6cc(OC)c(OC)cc6c[n+](C)c5c5cc(OC)c(OC)cc45)cc3c2cc1OC
786-0 renal
  TGI: > 100 µM
A498 renal
  TGI: > 100 µM
A549 NSCLC
  TGI: > 100 µM
ACHN renal
  TGI: > 100 µM
CAKI-1 renal
  TGI: > 100 µM
CCRF-CEM leukemia
  TGI: > 100 µM
DLD-1 colon
  TGI: > 100 µM
DMS 114 small cell lung
  TGI: > 100 µM
DMS 273 small cell lung
  TGI: > 100 µM
EKVX NSCLC
  TGI: > 100 µM
HCC-2998 colon
  TGI: > 100 µM
HCT-116 colon
  TGI: > 100 µM
HCT-15 colon
  TGI: > 100 µM
HL-60(TB) leukemia
  TGI: > 100 µM
HOP-18 NSCLC
  TGI: > 100 µM
HOP-62 NSCLC
  TGI: > 100 µM
HOP-92 NSCLC
  TGI: > 100 µM
HT29 colon
  TGI: > 100 µM
IGROV1 ovarian
  TGI: > 100 µM
K-562 leukemia
  TGI: > 100 µM
KM12 colon
  TGI: > 100 µM
KM20L2 colon
  TGI: > 100 µM
LOX IMVI melanoma
  TGI: > 100 µM
LXFL 529 NSCLC
  TGI: > 100 µM
M14 melanoma
  TGI: > 100 µM
M19-MEL melanoma
  TGI: > 100 µM
MALME-3M melanoma
  TGI: > 100 µM
MOLT-4 leukemia
  TGI: > 100 µM
NCI-H226 lung
  TGI: > 100 µM
NCI-H23 lung
  TGI: > 100 µM
NCI-H460 lung
  TGI: > 100 µM
NCI-H522 lung
  TGI: > 100 µM
OVCAR-3 ovarian
  TGI: > 100 µM
OVCAR-4 ovarian
  TGI: > 100 µM
OVCAR-5 ovarian
  TGI: > 100 µM
OVCAR-8 ovarian
  TGI: > 100 µM
RPMI-8226 leukemia
  TGI: > 100 µM
RXF 393 renal
  TGI: > 100 µM
SF-268 CNS
  TGI: > 100 µM
SF-295 CNS
  TGI: > 100 µM
SF-539 CNS
  TGI: > 100 µM
SK-MEL-2 melanoma
  TGI: > 100 µM
SK-MEL-28 melanoma
  TGI: > 100 µM
SK-MEL-5 melanoma
  TGI: > 100 µM
SK-OV-3 ovarian
  TGI: > 100 µM
SN12C renal
  TGI: > 100 µM
SNB-19 CNS
  TGI: 66.3 µM
SNB-75 CNS
  TGI: > 100 µM
SNB-78 CNS
  TGI: > 100 µM
SR leukemia
  TGI: > 100 µM
SW-620 colon
  TGI: > 100 µM
TK-10 renal
  TGI: > 100 µM
U251 CNS
  TGI: > 100 µM
UACC-257 melanoma
  TGI: > 100 µM
UACC-62 melanoma
  TGI: > 100 µM
UO-31 renal
  TGI: > 100 µM
XF 498 CNS
  TGI: > 100 µM

## COc1ccc(NC(=O)CC(=O)n2nc(-c3ccccc3)c(N=Nc3ccccc3C(=O)O)c2-c2ccccc2)cc1
786-0 renal
  TGI: 70.8 µM
A549 NSCLC
  TGI: > 100 µM
ACHN renal
  TGI: > 100 µM
CAKI-1 renal
  TGI: > 100 µM
CCRF-CEM leukemia
  TGI: > 100 µM
COLO 205 colon
  TGI: > 100 µM
DLD-1 colon
  TGI: > 100 µM
DMS 114 small cell lung
  TGI: > 100 µM
DMS 273 small cell lung
  TGI: > 100 µM
EKVX NSCLC
  TGI: > 100 µM
HCC-2998 colon
  TGI: > 100 µM
HCT-116 colon
  TGI: > 100 µM
HCT-15 colon
  TGI: > 100 µM
HOP-62 NSCLC
  TGI: > 100 µM
HOP-92 NSCLC
  TGI: 41.4 µM
IGROV1 ovarian
  TGI: > 100 µM
K-562 leukemia
  TGI: > 100 µM
KM12 colon
  TGI: > 100 µM
KM20L2 colon
  TGI: > 100 µM
LOX IMVI melanoma
  TGI: > 100 µM
LXFL 529 NSCLC
  TGI: > 100 µM
M19-MEL melanoma
  TGI: > 100 µM
MOLT-4 leukemia
  TGI: > 100 µM
NCI-H226 lung
  TGI: > 100 µM
NCI-H23 lung
  TGI: > 100 µM
NCI-H522 lung
  TGI: > 100 µM
OVCAR-3 ovarian
  TGI: > 100 µM
OVCAR-4 ovarian
  TGI: > 100 µM
OVCAR-5 ovarian
  TGI: > 100 µM
OVCAR-8 ovarian
  TGI: 78.9 µM
RPMI-8226 leukemia
  TGI: > 100 µM
RXF 393 renal
  TGI: 90.7 µM
RXF-631 renal
  TGI: > 100 µM
SF-268 CNS
  TGI: > 100 µM
SF-295 CNS
  TGI: > 100 µM
SF-539 CNS
  TGI: > 100 µM
SK-MEL-2 melanoma
  TGI: > 100 µM
SK-MEL-28 melanoma
  TGI: > 100 µM
SK-MEL-5 melanoma
  TGI: > 100 µM
SK-OV-3 ovarian
  TGI: 31.8 µM
SN12C renal
  TGI: > 100 µM
SNB-19 CNS
  TGI: > 100 µM
SR leukemia
  TGI: > 100 µM
SW-620 colon
  TGI: > 100 µM
TK-10 renal
  TGI: > 100 µM
U251 CNS
  TGI: > 100 µM
UACC-62 melanoma
  TGI: > 100 µM
UO-31 renal
  TGI: > 100 µM

## CN(C)CCN(C)CCC(=O)/C=C/c1ccccc1
786-0 renal
  TGI: 29.9 µM
A498 renal
  TGI: > 100 µM
A549 NSCLC
  TGI: > 100 µM
ACHN renal
  TGI: > 69.9 µM
CAKI-1 renal
  TGI: 49.9 µM
CCRF-CEM leukemia
  TGI: 23 µM
COLO 205 colon
  TGI: 36 µM
DLD-1 colon
  TGI: 39.9 µM
DMS 114 small cell lung
  TGI: > 66.3 µM
DMS 273 small cell lung
  TGI: 34 µM
EKVX NSCLC
  TGI: > 93.8 µM
HCC-2998 colon
  TGI: > 69.6 µM
HCT-116 colon
  TGI: 31.4 µM
HCT-15 colon
  TGI: 50.1 µM
HL-60(TB) leukemia
  TGI: 53.5 µM
HOP-18 NSCLC
  TGI: > 100 µM
HOP-62 NSCLC
  TGI: > 100 µM
HOP-92 NSCLC
  TGI: 56.9 µM
HT29 colon
  TGI: 41.2 µM
IGROV1 ovarian
  TGI: > 68.2 µM
K-562 leukemia
  TGI: > 52.8 µM
KM12 colon
  TGI: 52.5 µM
KM20L2 colon
  TGI: > 100 µM
LOX IMVI melanoma
  TGI: > 100 µM
LXFL 529 NSCLC
  TGI: 32.6 µM
M14 melanoma
  TGI: 40.6 µM
M19-MEL melanoma
  TGI: 40.9 µM
MALME-3M melanoma
  TGI: 35.6 µM
MOLT-4 leukemia
  TGI: 27.2 µM
NCI-H226 lung
  TGI: > 88.7 µM
NCI-H23 lung
  TGI: > 61.1 µM
NCI-H460 lung
  TGI: > 100 µM
NCI-H522 lung
  TGI: 9.64 µM
OVCAR-3 ovarian
  TGI: > 61.4 µM
OVCAR-4 ovarian
  TGI: > 61.2 µM
OVCAR-5 ovarian
  TGI: > 100 µM
OVCAR-8 ovarian
  TGI: 47.1 µM
RPMI-8226 leukemia
  TGI: 6.54 µM
RXF 393 renal
  TGI: 45.3 µM
SF-268 CNS
  TGI: > 94.5 µM
SF-295 CNS
  TGI: > 58.4 µM
SF-539 CNS
  TGI: 39.6 µM
SK-MEL-2 melanoma
  TGI: > 74.6 µM
SK-MEL-28 melanoma
  TGI: 43.6 µM
SK-MEL-5 melanoma
  TGI: > 62.1 µM
SK-OV-3 ovarian
  TGI: > 100 µM
SN12C renal
  TGI: 48.5 µM
SNB-19 CNS
  TGI: > 100 µM
SNB-75 CNS
  TGI: > 60.8 µM
SNB-78 CNS
  TGI: > 77.6 µM
SR leukemia
  TGI: 27.3 µM
SW-620 colon
  TGI: 37.7 µM
TK-10 renal
  TGI: > 63.9 µM
U251 CNS
  TGI: > 100 µM
UACC-257 melanoma
  TGI: 51.4 µM
UACC-62 melanoma
  TGI: 71.4 µM
UO-31 renal
  TGI: > 100 µM
XF 498 CNS
  TGI: 49.6 µM
